Experimental data taken from patent US9222093B2, “Two-way, portable riboswitch mediated gene expression control device” (THE UNIVERSITY OF HONG KONG, priority 2011, dated 2015).

Columns and labels:
[1] = test system: CsrB locus; assay: Autoaggregation and biofilm formation of ON-lacI strain harboring pLacIb-CsrB; type: cell-based, E. coli
Excerpt: CsrB locus 706 has previously been cloned into a high copy vector (plasmid) 704. Two LacIbs 112 were inserted around the transcriptional start site to place expression of CsrB locus 706 under the control of ON-lacI riboswitch 302. Since one LacIb is after the transcriptional start site, the resulting CsrB differs slightly from the native one by the extra 21 nt-sequence (i.e. LacIb). […] This CsrB-carrying vector 704 was introduced into the ON-lacI strain, and autoaggregation and biofilm formation were examined.
To measure autoaggregation, overnight cultures were diluted 1:500 and incubated at 37° C., with shaking at 220 rpm, in liquid LB medium. When cells aggregated (visualized macroscopically by the clumping or ‘fluffing’ of cells in liquid cultures), 100 μl of each cell suspension was transferred to flat-bottom 96-well plates (Iwaki, Tokyo, Japan) and the images of the cell aggregates were captured by scanning. To better visualize the cell aggregates, 1 μl of crystal violet (0.1%) was added to each cell suspension immediately prior to image capture. Cellular autoaggregation was also examined microscopically. Cell suspensions were spread on a microscope slide, heat-fixed, stained with DAPI (4′6-diamidino-2-phenylindol), and imaged using a fluorescence stereomicroscope SZX12 (Olympus, Tokyo, Japan) with DAPI filter sets.
Biofilms were formed on polystyrene, flat-bottom 96-well microtiter plates (Iwaki, Tokyo, Japan). 200 μl of each cell suspension (10^5 cells/ml) was transferred into each well of a microtiter plate, and incubated for 24 h at 37° C. in a shaker at 75 rpm. Resulting biofilms were washed thrice with PBS and air dried. Then, biofilms were stained with […] of 0.4% aqueous crystal violet solution for 15 min. Next, biofilms were washed three times with sterile distilled water and immediately destained with 200 μl of 95% ethanol. After 30 min of destaining, 100 μl of destaining solution was transferred to a new well and measured with a microtiter plate reader (SpectraMAX®340 Tunable Microplate Reader; Molecular Devices Ltd.) at 595 nm.

[2] = test system: wild type strain; assay: Extracellular acetate assimilation, wild type strain; type: cell-based, E. coli; details: data not shown
Excerpt: (§1) Bacterial cells switch from rapid growth during which they produce and excrete acetate (dissimilation) in the presence of abundant nutrients to slower growth supported by the import and utilization of the excreted acetate (assimilation) when glucose is exhausted. This physiological event is defined as an acetate switch, a survival response allowing cells to compete successfully during carbon starvation. It was previously reported that RpoS positively regulates consumption of acetate by activating the expression of acetyl-coenzyme A synthetase enzyme (Acs). However, the opposite results were obtained with ON-lacI-rpoS construction provided herein. […] When grown in the presence of theophylline (2 mM) and absence of IPTG, rpoS expression was shut off and accordingly, acetate assimilation was accelerated (FIG. 8A). […] The enhanced acetate assimilation was also observed with the newly constructed rpoS gene locus null mutant, shown in graph 804 (FIG. 8B). […] It is therefore apparent that RpoS represses acetate assimilation.

[3] = test system: ON-lacI-rpoS cells; assay: Extracellular acetate assimilation; type: cell-based, E. coli
Excerpt: as §1

[4] = test system: rpoS gene locus; assay: Acid survival of ON-lacI-rpoS strain (pH 2.0, 2 hours); type: cell-based, E. coli
Excerpt: The ON-lacI-LacIbs cassette (2500 bp) from the genome of the strain carrying the ON riboswitch of lacI is amplified using […]. Cassette 602 is composed of the cat gene, the ON-lacI riboswitch, the lacI gene, and the lacI-lacZ intergenic region containing two LacIbs. The cat gene facilitates integration of this cassette immediately upstream of any target gene via recombineering. The riboswitch cassette was inserted upstream of the ribosomal binding site of rpoS gene locus […] (FIG. 6A). Next, the native lacI was deleted from this strain, generating a new mutant strain, ON-lacI-rpoS. This strain was used to test whether rpoS gene locus 606 could be controlled by the theophylline-responsive and LacI-repressible regulation cassette 602. Since rpoS is required for acid resistance, survival of strain […] under acidic conditions was assayed. Overnight cultures were treated with acid (pH 2.0) for 2 hours, and then serially diluted in neutral medium. After culturing overnight, colony forming units (CFU) of acid-treated and untreated cells were determined Acid survival (%) was calculated using the formula: Acid survival (%)=100×(CFU of treated/CFU of untreated).

[5] = molecular target: T1, LacI repressor protein (Escherichia coli, UniProt P03023); assay: β-galactosidase assay of lacZ in cells carrying ON-lacI riboswitch and intact lacZ (IPTG arm of two-way control); type: cell-based, E. coli MG1655; details: medium containing 1600 μM theophylline
T1 construct: ON-lacI riboswitch 302 was incorporated into the chromosome upstream from intact lad gene (i.e., not fused with lacZ); endogenous in cells; host or cells: E. coli MG1655 derivative with ON-lacI riboswitch on the chromosome and intact lacZ locus
T1 sequence (P03023 whole entry, the tested form may be a part): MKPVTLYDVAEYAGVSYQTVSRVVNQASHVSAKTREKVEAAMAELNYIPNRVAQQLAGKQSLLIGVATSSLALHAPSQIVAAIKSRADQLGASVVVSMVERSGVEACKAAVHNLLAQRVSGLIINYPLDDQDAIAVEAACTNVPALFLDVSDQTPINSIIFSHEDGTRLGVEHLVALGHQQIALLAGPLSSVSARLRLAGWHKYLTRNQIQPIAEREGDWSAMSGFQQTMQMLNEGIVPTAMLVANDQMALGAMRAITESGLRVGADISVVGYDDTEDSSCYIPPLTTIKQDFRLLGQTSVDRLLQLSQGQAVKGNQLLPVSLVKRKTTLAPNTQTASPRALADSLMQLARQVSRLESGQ
Excerpt: (§2) The loxP-cat-loxP selectable cassette was inserted immediately after the stop codon of the lacZ gene on the MG1655 chromosome using recombineering methods. Next, the lacZ-loxP-cat-loxP cassette was PCR amplified and inserted (in frame) immediately prior to the stop codon of the target gene on the chromosome. The inserted lacZ fragment started from the 8th codon of the lacZ gene, and was co-transcribed and translated with the fused genes. The expression of gene-lacZ fusions was quantified using a β-galactosidase assay. Levels of β-galactosidasewere calculated using the following formula: units (U)=[…]
ON-lacI riboswitch 302 makes two-way gene regulation possible because the Lad repressor protein can be inactivated by isopropyl β-D-1-thiogalactopyranoside (IPTG). Thus, adding theophylline to the culture medium switches on lacI translation, and transcriptionally represses the target genes of LacI. In contrast. IPTG inactivates LacI by binding to the protein and derepresses transcription of the target genes.
Two-way control was verified by determining β-galactosidase levels of the cells carrying both ON-lacI riboswitch 302 and an intact lacZ gene locus. Theophylline and IPTG regulated lacZ in opposite directions in a concentration-dependent manner (graph 312, FIG. 3D). The effective concentration range of theophylline was 100-1600 μM. […]

[6] = test system: lacI-lacZ fusion; assay: β-galactosidase assay of lacI-lacZ translational fusion; type: cell-based, E. coli MG1655; details: E. coli mutant containing ON-lacI riboswitch; with vs without theophylline
Excerpt: as §2
To engineer an ON-riboswitch of the lacI gene, riboswitch cassette 302, cat-aptamer-linker-random sequence, was integrated upstream of the ribosomal binding site of lacI-lacZ usion 304 on the chromosome using standard recombineering methods (FIG. 3A).
The resulting mutant collection was grown on X-gal plates 306 in the absence of theophylline. Approximately 2000 colonies were screened for color. Two white clones were identified. […]

[7] = test system: ON-lacI riboswitch; assay: β-galactosidase assay of lacZ in cells carrying ON-lacI riboswitch and intact lacZ (theophylline arm of two-way control); type: cell-based, E. coli MG1655
Excerpt: as §2
ON-lacI riboswitch 302 was incorporated into the chromosome upstream from intact lad gene (i.e., not fused with lacZ). The LacI protein represses expression of lacZ so that ON riboswitch 302 indirectly switches off lacZ in response to theophylline.
Two-way control was verified by determining β-galactosidase levels of the cells carrying both ON-lacI riboswitch 302 and an intact lacZ gene locus. Theophylline and IPTG regulated lacZ in opposite directions in a concentration-dependent manner (graph 312, FIG. 3D). The effective concentration range of theophylline was 100-1600 μM. […] When IPTG was added to the medium containing 1600 μM theophylline, lacZ was derepressed. The effective range of IPTG was 0.16-40 μM.

[8] = test system: ON-crp strain; assay: Motility of ON-crp strain on semisolid motility plates; type: cell-based, E. coli MG1655; details: theophylline ligand added; increased with higher theophylline concentrations
Experimental: The motility phenotype of the ON-crp strain was assayed to further confirm the effectiveness of the ON-riboswitch.

[9] = in the presence of theophylline

| SMILES | autoaggregation and biofilm formation ([1]; IPTG added together with theophylline) | effect on acetate assimilation in the wild type strain [2] | acetate assimilation ([3]; IPTG 1 mM added to the theophylline medium) | acid survival ([4]; 40 μM IPTG in medium containing 1600 μM theophylline) | effective range of IPTG (lacZ derepression) [5] [µM] | LacI levels in the presence of the ligand [6] | autoaggregation [1, 9] | biofilm formation [1, 9] | acetate assimilation ([3]; theophylline 2 mM, absence of IPTG) | acid survival ([4]; 1600 μM theophylline) | lacZ expression in the presence of theophylline ([7]; ON-lacI combined with LacIbs upstream from lacZ) | effective concentration range of theophylline (lacZ regulation) ([7]; cells carrying ON-lacI riboswitch and intact lacZ, repression, saturation above the range) [µM] | lacZ regulation at theophylline concentrations less than 100 μM ([7]; theophylline less than 100 μM) | motility [8] |
| --- | --- | --- | --- | --- | --- | --- | --- | --- | --- | --- | --- | --- | --- | --- |
| CC(C)S[C@@H]1O[C@H](CO)[C@H](O)[C@H](O)[C@H]1O [IPTG, isopropyl β-D-1-thiogalactopyranoside] | restored | Neither theophylline nor IPTG had any effect | restored to the wild-type levels | restored to the wild-type levels | 0.16 to 40 | – | – | – | – | – | – | – | – | – |
| Cn1c(=O)c2[nH]cnc2n(C)c1=O [theophylline] | – | Neither theophylline nor IPTG had any effect | – | – | – | one fold-increase | negative with respect to autoaggregation | low levels of biofilms | accelerated | comparable to that of an rpoS null mutant | almost completely repressed | 100 to 1600 | little regulation | gained motility |
